Laboratory results published in PubChem BioAssay (NCI).
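Test compounds were applied to cells in 96-well plates for 48 hours at 5 doses. GI50 is the concentration that inhibits growth by half. TGI: total growth inhibition.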 Where a SMILES comes first, the peptide text is derived from it. [ ]: non-standard residue; d: D form.

Experiments:
Experiment in all cases: DTP human tumour cell line panel, 48 h
HCC-2998 colon = tested on: HCC-2998 colon
SN12C renal = tested on: SN12C renal
SR leukemia = tested on: SR leukemia
SF-295 CNS = tested on: SF-295 CNS
NCI-H23 lung = tested on: NCI-H23 lung
OVCAR-5 ovarian = tested on: OVCAR-5 ovarian
EKVX NSCLC = tested on: EKVX NSCLC
KM12 colon = tested on: KM12 colon
SF-539 CNS = tested on: SF-539 CNS

| Structure (SMILES) | GI50 (HCC-2998 colon) [µM] | TGI (HCC-2998 colon) [µM] | TGI (SN12C renal) [µM] | GI50 (SR leukemia) [µM] | TGI (SR leukemia) [µM] | GI50 (SF-295 CNS) [µM] | TGI (SF-295 CNS) [µM] | GI50 (NCI-H23 lung) [µM] | TGI (NCI-H23 lung) [µM] | GI50 (OVCAR-5 ovarian) [µM] | TGI (OVCAR-5 ovarian) [µM] | GI50 (EKVX NSCLC) [µM] | TGI (EKVX NSCLC) [µM] | GI50 (KM12 colon) [µM] | TGI (KM12 colon) [µM] | GI50 (SF-539 CNS) [µM] | TGI (SF-539 CNS) [µM] | GI50 (SN12C renal) [µM] |
| --- | --- | --- | --- | --- | --- | --- | --- | --- | --- | --- | --- | --- | --- | --- | --- | --- | --- | --- |
| O=C(/C=C/c1ccc(Cl)cc1Cl)c1ccc(Cl)cc1Cl | 23.7 | > 70.5 | 24.8 | 3.33 | 14.9 | 18.7 | 47.7 | 20.5 | 67.2 | 21.7 | 49.1 | 20.6 | 58.7 | 13.5 | 30.4 | 20.7 | > 54.9 | – |
| O=C1C(OC(=O)c2ccccc2)=C(c2ccc(O)cc2)C(=O)C(OC(=O)c2ccccc2)=C1c1ccc(O)cc1 | – | > 100 | > 100 | – | – | – | > 100 | – | > 100 | – | > 100 | – | > 100 | – | > 100 | – | > 100 | – |
| CC(=O)[O][Hg][c]1s[c]([Hg][O]C(C)=O)[c]([Hg][O]C(C)=O)[c]1[Hg][O]C(C)=O | 14.6 | 40.1 | > 100 | 2.27 | > 100 | 13.5 | 40.1 | 19.7 | > 100 | – | – | – | – | 22.6 | > 100 | – | – | 8.33 |
| COc1ccc(F)cc1-c1ccnc2[nH]c(C3=CCN(C4CCC(CC(=O)O)CC4)CC3)cc12 (stereo unspecified) | 0.299 | > 100 | 35.5 | 0.0295 | > 100 | 0.286 | 15.4 | 0.185 | 2.53 | 0.268 | > 100 | 0.289 | 40.9 | 0.0953 | > 100 | 0.0546 | 0.335 | 0.146 |
| CCCC(=O)OC(OC(=O)CCC)c1ccc([N+](=O)[O-])o1 | – | 32.1 | 31.3 | – | 53.1 | – | > 100 | – | 48.8 | – | 39.6 | – | 99.6 | – | > 100 | – | > 100 | – |
| CN(C)CCOc1ccc2c(c1)C(=O)/C(=C\c1ncc([N+](=O)[O-])n1C)C2 | 0.507 | 1.75 | 5.21 | 0.416 | 0.96 | 0.46 | 1.47 | 0.258 | 1.3 | 2.02 | 5.7 | 0.711 | 3.83 | 1.19 | 3.21 | 1.4 | 3.35 | 1.12 |
| CSCC[C@H](NC(=O)[C@@H](N)CC(N)=O)C(=O)N[C@@H](Cc1c[nH]c2ccccc12)C(=O)N[C@@H](CCC(N)=O)C(=O)N[C@@H](CCC(=O)O)C(=O)N[C@H](C(=O)NCC(=O)N[C@@H](CCCCN)C(=O)N[C@H](C)C(=O)O)C(C)C (H-NMWQEVGK[dA]-OH) | – | > 100 | > 100 | – | – | – | > 100 | – | > 100 | – | > 100 | – | > 100 | – | > 100 | – | > 100 | – |
| c1ccc(-c2cc3n4c(-c5ccccc5)nn(-c5ccccc5)c4cnc-3n2)cc1 | – | – | > 50 | > 50 | > 50 | 2.35 | > 50 | > 50 | > 50 | > 50 | > 50 | 17 | > 50 | > 50 | > 50 | 13.7 | > 50 | > 50 |
